From PubChem BioAssay (NCI)
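Exposure lasted 48 hours, with cells grown in 96-well plates and compounds tested at five concentrations. TGI: total growth inhibition.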

Key:
Assay in all cases: NCI-60 cell line screen, 48 h
786-0 renal = tested on: 786-0 renal
A498 renal = tested on: A498 renal
A549 NSCLC = tested on: A549 NSCLC
ACHN renal = tested on: ACHN renal
CAKI-1 renal = tested on: CAKI-1 renal
CCRF-CEM leukemia = tested on: CCRF-CEM leukemia
DLD-1 colon = tested on: DLD-1 colon
DMS 114 small cell lung = tested on: DMS 114 small cell lung
DMS 273 small cell lung = tested on: DMS 273 small cell lung
EKVX NSCLC = tested on: EKVX NSCLC
HCC-2998 colon = tested on: HCC-2998 colon
HCT-116 colon = tested on: HCT-116 colon
HCT-15 colon = tested on: HCT-15 colon
HL-60(TB) leukemia = tested on: HL-60(TB) leukemia
HOP-18 NSCLC = tested on: HOP-18 NSCLC
HOP-62 NSCLC = tested on: HOP-62 NSCLC
HOP-92 NSCLC = tested on: HOP-92 NSCLC
HT29 colon = tested on: HT29 colon
IGROV1 ovarian = tested on: IGROV1 ovarian
K-562 leukemia = tested on: K-562 leukemia
KM12 colon = tested on: KM12 colon
KM20L2 colon = tested on: KM20L2 colon
LXFL 529 NSCLC = tested on: LXFL 529 NSCLC
M14 melanoma = tested on: M14 melanoma
M19-MEL melanoma = tested on: M19-MEL melanoma
MALME-3M melanoma = tested on: MALME-3M melanoma
MOLT-4 leukemia = tested on: MOLT-4 leukemia
NCI-H226 lung = tested on: NCI-H226 lung
NCI-H23 lung = tested on: NCI-H23 lung
NCI-H460 lung = tested on: NCI-H460 lung
NCI-H522 lung = tested on: NCI-H522 lung
OVCAR-4 ovarian = tested on: OVCAR-4 ovarian
OVCAR-5 ovarian = tested on: OVCAR-5 ovarian
OVCAR-8 ovarian = tested on: OVCAR-8 ovarian
RPMI-8226 leukemia = tested on: RPMI-8226 leukemia
RXF 393 renal = tested on: RXF 393 renal
RXF-631 renal = tested on: RXF-631 renal
SF-268 CNS = tested on: SF-268 CNS
SF-295 CNS = tested on: SF-295 CNS
SF-539 CNS = tested on: SF-539 CNS
SK-MEL-2 melanoma = tested on: SK-MEL-2 melanoma
SK-MEL-28 melanoma = tested on: SK-MEL-28 melanoma
SK-MEL-5 melanoma = tested on: SK-MEL-5 melanoma
SK-OV-3 ovarian = tested on: SK-OV-3 ovarian
SN12C renal = tested on: SN12C renal
SNB-19 CNS = tested on: SNB-19 CNS
SNB-75 CNS = tested on: SNB-75 CNS
SNB-78 CNS = tested on: SNB-78 CNS
SR leukemia = tested on: SR leukemia
SW-620 colon = tested on: SW-620 colon
TK-10 renal = tested on: TK-10 renal
U251 CNS = tested on: U251 CNS
UACC-257 melanoma = tested on: UACC-257 melanoma
UACC-62 melanoma = tested on: UACC-62 melanoma
UO-31 renal = tested on: UO-31 renal
XF 498 CNS = tested on: XF 498 CNS

Measured: TGI

CN(C)C(=S)/N=c1\ssc(=S)n1C
> 100 µM: all assays above
